The test system of test [1] is Tyrosine-protein kinase ABL1 (Homo sapiens), P00519 [F317I]. The note with it: at 10 µM.
The target of test [2] is T1, Ephrin type-B receptor 2 (Homo sapiens) (UniProt P29323).
T1 sequence (whole entry): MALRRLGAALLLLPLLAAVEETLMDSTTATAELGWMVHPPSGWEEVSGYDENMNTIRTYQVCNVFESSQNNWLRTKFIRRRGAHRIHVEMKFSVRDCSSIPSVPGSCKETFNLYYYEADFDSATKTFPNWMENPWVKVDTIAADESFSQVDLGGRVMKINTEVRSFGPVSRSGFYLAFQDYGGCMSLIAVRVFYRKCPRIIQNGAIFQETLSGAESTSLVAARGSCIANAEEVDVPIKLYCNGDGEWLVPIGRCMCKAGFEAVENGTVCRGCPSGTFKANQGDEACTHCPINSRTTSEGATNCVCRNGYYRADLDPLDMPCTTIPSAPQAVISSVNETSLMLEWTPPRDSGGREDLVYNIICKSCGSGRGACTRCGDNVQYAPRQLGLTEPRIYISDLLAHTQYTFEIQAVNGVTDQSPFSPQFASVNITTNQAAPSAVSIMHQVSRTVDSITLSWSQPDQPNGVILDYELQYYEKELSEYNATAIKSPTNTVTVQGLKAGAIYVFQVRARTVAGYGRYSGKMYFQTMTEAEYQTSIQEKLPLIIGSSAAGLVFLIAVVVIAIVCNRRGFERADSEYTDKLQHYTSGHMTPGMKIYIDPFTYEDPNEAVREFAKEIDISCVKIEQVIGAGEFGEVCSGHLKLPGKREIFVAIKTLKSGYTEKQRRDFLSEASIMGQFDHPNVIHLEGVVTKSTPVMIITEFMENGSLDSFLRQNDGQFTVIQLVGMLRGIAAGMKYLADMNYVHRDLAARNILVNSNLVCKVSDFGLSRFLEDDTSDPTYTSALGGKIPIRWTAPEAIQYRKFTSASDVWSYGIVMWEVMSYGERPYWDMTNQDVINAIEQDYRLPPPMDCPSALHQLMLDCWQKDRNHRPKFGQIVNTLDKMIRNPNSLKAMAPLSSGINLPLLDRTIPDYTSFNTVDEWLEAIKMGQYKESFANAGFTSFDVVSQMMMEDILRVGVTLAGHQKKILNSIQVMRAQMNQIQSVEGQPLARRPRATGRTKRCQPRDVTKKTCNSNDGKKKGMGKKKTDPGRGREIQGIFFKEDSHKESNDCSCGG
The note with it: at 10 µM.

Test [3] has as its target Rho-associated protein kinase 1 (Homo sapiens) (UniProt Q13464). The experiment in a line: Selectivity interaction (Kinase panel (Z-LYTE Assay)) EUB0001632a ROCK1. The following applies: at 10 µM.
Test [4] concerns the target Serine/threonine-protein kinase mTOR (Homo sapiens, UniProt P42345). The experiment in a line: Selectivity interaction (Kinase panel (antibody-dependent TR-FRET assay, phosphorylation of 4EBP-1 catalyzed by recombinant mTOR)) EUB0000877a MTOR. Background: In TR-FRET formats the signal depends on donor and acceptor labels being close together.
The target in test [5] is T2, Serine/threonine-protein kinase D1 (Homo sapiens) (UniProt Q15139).
T2 sequence (whole entry): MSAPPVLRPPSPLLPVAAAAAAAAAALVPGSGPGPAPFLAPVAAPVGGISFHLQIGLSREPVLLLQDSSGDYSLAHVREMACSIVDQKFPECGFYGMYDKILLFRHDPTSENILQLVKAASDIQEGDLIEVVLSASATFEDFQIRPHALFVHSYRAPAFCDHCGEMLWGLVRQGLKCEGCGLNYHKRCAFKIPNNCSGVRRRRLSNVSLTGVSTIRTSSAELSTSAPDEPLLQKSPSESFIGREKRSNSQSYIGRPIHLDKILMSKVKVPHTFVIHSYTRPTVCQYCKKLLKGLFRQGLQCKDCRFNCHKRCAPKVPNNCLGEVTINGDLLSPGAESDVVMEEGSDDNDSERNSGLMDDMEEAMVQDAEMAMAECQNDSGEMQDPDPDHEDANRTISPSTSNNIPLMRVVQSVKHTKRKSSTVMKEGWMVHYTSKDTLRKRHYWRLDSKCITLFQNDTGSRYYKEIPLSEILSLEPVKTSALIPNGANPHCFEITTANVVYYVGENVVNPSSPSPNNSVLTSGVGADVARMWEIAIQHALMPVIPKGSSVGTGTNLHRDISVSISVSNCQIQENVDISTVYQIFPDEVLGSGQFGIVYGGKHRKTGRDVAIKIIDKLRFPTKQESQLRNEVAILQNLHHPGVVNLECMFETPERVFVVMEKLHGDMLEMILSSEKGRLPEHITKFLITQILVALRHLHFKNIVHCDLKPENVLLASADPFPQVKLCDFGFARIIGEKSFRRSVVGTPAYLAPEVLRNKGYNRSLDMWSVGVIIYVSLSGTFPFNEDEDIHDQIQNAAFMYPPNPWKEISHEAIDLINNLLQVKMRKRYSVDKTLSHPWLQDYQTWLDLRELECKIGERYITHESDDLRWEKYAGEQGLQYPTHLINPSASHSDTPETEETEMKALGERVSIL
The experiment in a line: Selectivity interaction (KinomeScan (DiscoverX)) EUB0001619a PRKD1. The note with it: at 1 µM.

Chain of Tyrosine-protein kinase ABL1 (Homo sapiens), P00519 [F317I] (P00519 whole entry F317I): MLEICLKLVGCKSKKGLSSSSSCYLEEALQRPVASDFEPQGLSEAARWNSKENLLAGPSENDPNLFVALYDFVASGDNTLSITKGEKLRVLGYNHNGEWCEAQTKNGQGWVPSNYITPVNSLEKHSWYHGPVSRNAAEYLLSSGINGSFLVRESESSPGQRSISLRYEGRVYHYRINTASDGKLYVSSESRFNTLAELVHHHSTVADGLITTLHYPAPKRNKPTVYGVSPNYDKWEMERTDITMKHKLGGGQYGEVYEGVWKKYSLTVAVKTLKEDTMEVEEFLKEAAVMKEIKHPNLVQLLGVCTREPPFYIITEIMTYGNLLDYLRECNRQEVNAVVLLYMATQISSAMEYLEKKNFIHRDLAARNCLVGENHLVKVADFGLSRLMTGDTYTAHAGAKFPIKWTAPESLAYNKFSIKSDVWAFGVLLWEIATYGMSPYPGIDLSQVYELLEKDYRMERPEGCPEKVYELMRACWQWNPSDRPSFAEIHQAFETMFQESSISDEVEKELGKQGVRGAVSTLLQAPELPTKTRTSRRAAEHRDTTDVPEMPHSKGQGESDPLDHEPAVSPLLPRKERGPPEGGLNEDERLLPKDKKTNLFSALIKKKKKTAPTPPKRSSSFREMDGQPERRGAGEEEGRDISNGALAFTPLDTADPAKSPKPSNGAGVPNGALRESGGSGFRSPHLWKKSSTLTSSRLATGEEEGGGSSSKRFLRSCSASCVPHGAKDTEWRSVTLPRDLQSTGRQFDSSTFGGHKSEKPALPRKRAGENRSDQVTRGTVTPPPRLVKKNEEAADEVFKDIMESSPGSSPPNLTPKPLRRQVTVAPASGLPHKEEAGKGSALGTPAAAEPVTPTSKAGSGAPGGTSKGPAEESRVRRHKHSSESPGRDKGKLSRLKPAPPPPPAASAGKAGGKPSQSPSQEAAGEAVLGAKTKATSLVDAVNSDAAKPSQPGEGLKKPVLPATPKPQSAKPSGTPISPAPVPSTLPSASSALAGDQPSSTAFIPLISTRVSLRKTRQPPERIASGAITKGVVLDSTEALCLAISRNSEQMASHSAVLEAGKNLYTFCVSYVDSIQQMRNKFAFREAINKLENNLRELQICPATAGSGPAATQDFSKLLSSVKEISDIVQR
Chain of Rho-associated protein kinase 1 (Homo sapiens) (Q13464 2-1354 limits assumed): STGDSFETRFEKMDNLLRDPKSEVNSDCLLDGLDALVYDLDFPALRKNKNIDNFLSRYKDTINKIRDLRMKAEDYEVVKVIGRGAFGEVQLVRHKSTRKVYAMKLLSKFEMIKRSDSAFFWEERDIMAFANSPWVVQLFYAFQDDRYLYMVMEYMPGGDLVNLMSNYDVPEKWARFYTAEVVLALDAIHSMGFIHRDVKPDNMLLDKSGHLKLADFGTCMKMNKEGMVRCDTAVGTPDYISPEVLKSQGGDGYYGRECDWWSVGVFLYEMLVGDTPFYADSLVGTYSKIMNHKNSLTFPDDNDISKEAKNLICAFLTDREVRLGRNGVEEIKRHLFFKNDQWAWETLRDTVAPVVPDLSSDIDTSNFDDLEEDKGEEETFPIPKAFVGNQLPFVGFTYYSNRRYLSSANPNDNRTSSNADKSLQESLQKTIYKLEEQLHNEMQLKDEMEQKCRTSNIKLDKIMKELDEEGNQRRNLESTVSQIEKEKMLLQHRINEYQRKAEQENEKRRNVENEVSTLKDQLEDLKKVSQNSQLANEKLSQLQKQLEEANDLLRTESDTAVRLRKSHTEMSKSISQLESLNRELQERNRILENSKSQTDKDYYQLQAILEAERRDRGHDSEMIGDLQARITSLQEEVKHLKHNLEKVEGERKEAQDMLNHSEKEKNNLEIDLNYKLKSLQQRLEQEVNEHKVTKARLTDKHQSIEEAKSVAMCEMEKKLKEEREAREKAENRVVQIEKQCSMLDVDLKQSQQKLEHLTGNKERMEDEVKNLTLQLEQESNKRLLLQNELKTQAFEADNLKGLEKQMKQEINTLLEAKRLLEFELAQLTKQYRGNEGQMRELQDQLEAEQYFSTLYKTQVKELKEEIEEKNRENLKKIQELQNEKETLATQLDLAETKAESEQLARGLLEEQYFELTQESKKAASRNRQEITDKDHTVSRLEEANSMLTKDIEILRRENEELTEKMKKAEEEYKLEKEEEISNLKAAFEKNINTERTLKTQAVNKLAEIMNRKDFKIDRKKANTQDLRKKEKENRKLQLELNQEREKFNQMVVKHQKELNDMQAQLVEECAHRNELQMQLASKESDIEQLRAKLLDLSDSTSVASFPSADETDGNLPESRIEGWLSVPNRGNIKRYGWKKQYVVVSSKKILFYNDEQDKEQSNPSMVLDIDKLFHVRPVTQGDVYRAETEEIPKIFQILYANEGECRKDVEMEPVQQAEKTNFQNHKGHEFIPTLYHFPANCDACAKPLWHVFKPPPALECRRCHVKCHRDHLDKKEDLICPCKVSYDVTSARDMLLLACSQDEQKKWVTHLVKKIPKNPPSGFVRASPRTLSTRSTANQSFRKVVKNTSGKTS

With `Cc1cc([C@@H](C)Nc2ccccc2C(=O)O)c2nc(N3CCOCC3)cc(=O)n2c1` [AZD-6482], the % of control in test [1] and in test [2] was 100% in each case.
In the case of `Cn1cc(-n2cnc3c(NCc4nc5cc(Cl)c(Cl)cc5[nH]4)nc(N4CCOCC4)nc32)cn1`, the % of control in test [3] was -2.74%.
As a reminder, the IC50 is the midpoint of a concentration-inhibition curve. On to `CCC(=O)N1CC[C@H](Nc2ncnc3c2CN(c2cnc(OC)c(C(F)(F)F)c2)CC3)C1` [LENIOLISIB], for which, in test [4], the IC50 is greater than 9.1 µM.
As for `N#Cc1cccc(-c2c[nH]c3ncnc(N4CCOCC4)c23)c1`, in test [5], the % of control was found to be 100%.

The values are drawn from ChEMBL document CHEMBL5465560, “Selectivity Literature for EUbOPEN Chemogenomic Library” (2024).
